Assay results taken from US20140038896A1, “Retroelements and mental disorders and methods of measuring L1 retrotransposition” (Salk Institute for Biological Studies, priority 2009, published 2014).

What was measured:
[1] = tested on: endogenous rat L1 promoter region (5′UTR); assay: ChIP of MeCP2 and Sox2 on the endogenous rat L1 promoter region in NSCs; assay type: cell-based; details: for MeCP2 ChIP signal / association to the L1 promoter region: 500 ng/ml for 4 days
Description: ChIP assay was done essentially following the manufacturer's protocol using a ChIP assay kit (Upstate). Antibodies used were anti-MeCP2 (Upstate), Sox2 (Chemicon), and IgG. Purified DNA was amplified by PCR using primers for the rat L1 5′UTR promoter region (L1.3, accession # X03095).
(§1) Using chromatin immunoprecipitation (ChIP), high levels of MeCP2 were detected in association with the L1 promoter region (i.e., 5′UTR) in rat NSCs compared to differentiated neurons (FIG. 1F). To rule out differences in protein abundance that may differently influence ChIP amplification, western blot analysis was performed using lysates from cells that had undergone neuronal differentiation. […] Next, it was asked if releasing of MeCP2 from the methylated DNA would increase its association with Sox2 in solution. The Co-IP experiment in the presence of the 5-Aza was then repeated. […] It may be that both configurations can occur on the same L1 promoter region or each possibility is a L1 element sequence-dependent event.

L1 5′UTR CpG islands = assay: Bisulfite analysis of L1 5′UTR DNA methylation in NSCs; assay type: cell-based, rat; details: treatment for 4-days
Procedure: Genomic DNA from NSCs was isolated using standard phenol-chloroform extraction techniques. Subsequently, DNA was digested with the restriction enzyme EcoRI and the bisulfite conversion reaction was performed using the Epitect kit (Quiagen), following manufacturer's instructions. Primers were designed based on the rat L1 sequence Mlvi2, using Methyl Primer Express; primers for L1 converted 5′UTR region: forward 5-[…]-3′ (SEQ ID NO:1) and reverse 5′-[…]-3′ (SEQ ID NO:2). PCR products were cloned into TOPO TA 2.1 plasmids (Invitrogen) and 40 bacterial colonies were analyzed by sequencing.

MeCP2 and Sox2 = assay: Co-immunoprecipitation between MeCP2 and Sox2; assay type: cell-based, rat; details: in the presence of 5-Aza
Procedure: Immunofluorescence for EGFP was performed as previously described (11). A non-transgenic animal was used to measure the background fluorescence in the brain and to establish a threshold for detection. Western blotting was carried out using standard protocols with the following antibodies: mouse anti-Actin (1/500, Ambion), rabbit anti-MeCP2 (1/1000, Imgenex or Upstate), and rabbit anti-Sox2 (1/100, Chemicon). All secondary antibodies were purchased from Jackson ImmunoResearch. For co-immunoprecipitation, the Nuclear Complex Co-IP kit (Active Motif) was used, following the manufacturer's protocol with the highest stringency buffers.
as §1

SMILES: Nc1ncn([C@@H]2O[C@H](CO)[C@@H](O)[C@H]2O)c(=O)n1 [5-Azacytidine]
- MeCP2 ChIP signal / association to the L1 promoter region [1]: lost
- MeCP2 ChIP signal / association to the L1 promoter region ([1]; listed as 5-Azacitidine): reduced
- Sox2 binding to the L1 promoter ([1]; 5-Aza treatment): did riot prevent
- removal of methyl radicals from the 5′UTR L1 region (bisulfite) (L1 5′UTR CpG islands): completely removed
- amount of MeCP2 in association with Sox2 in solution (Co-IP) (MeCP2 and Sox2): increased
